Results reported in patent US8163768B2, “1,4-dihydropyridine-fused heterocycles, process for preparing the same, use and compositions containing them” (Aventis Pharma S.A.., priority 2005, dated 2012).
pIC50: −log10 of the molar value. Structures can show the parent of a compound that is named as a salt.

Assays:
[1] = molecular target: T1, Aurora2 (Aurora-A) (Homo sapiens, UniProt O14965); assay: Aurora 2 (Aurora A) kinase radioactivity scintillation assay using nickel chelate Flash plates; format: biochemical; conditions: 10 nM Aurora-A, 500 nM NuMA substrate, 1 μM ATP with [33P] ATP, 10 mM MgCl2, 30 minutes, 37° C.
T1 construct: Aurora-A: the full length recombinant protein including an N-terminal poly-histidine tail has been expressed in E. coli; poly-histidine (N); made in house; host or cells: E. coli
T1 sequence (O14965 1-403): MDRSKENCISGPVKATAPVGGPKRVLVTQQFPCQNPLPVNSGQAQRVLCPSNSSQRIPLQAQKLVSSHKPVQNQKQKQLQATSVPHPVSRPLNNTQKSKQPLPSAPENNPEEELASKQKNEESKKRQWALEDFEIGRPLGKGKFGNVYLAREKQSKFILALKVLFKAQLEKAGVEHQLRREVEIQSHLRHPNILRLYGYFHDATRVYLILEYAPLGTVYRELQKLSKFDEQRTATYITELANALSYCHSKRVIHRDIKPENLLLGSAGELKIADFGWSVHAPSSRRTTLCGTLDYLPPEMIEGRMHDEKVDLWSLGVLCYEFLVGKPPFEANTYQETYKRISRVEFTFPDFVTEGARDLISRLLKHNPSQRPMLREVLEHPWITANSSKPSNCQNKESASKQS
Summary of the method: (§1)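 10 nM Aurora-B or Aurora-A with 500 nM NuMA-His substrate, 1 μM ATP plus [³³P]ATP, in 50 mM NaCl, 1 mM DTT and 5 mM (B) or 10 mM (A) MgCl2, 30 min at 37° C on nickel-chelate plates. Incorporated ³³P counted after washing, background-subtracted; IC50 fitted from % inhibition versus concentration.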

[2] = molecular target: T2, Aurora1 (Aurora-B) (Homo sapiens, UniProt Q96GD4); assay: Aurora 1 (Aurora B) kinase radioactivity scintillation assay using nickel chelate Flash plates; format: biochemical; conditions: 10 nM Aurora-B (co expressed with C3 fragment of INCEP), 500 nM NuMA substrate, 1 μM ATP with [33P] ATP, 5 mM MgCl2, 30 minutes, 37° C.
T2 construct: Aurora-B: the full length protein (His tagged in N-terminal) has been co expressed in SF9 cells; poly-histidine (N); made in house; host or cells: SF9 cells
Summary of the method: as §1

T2 sequence (Q96GD4 whole entry, species assumed, the tested form may be a part): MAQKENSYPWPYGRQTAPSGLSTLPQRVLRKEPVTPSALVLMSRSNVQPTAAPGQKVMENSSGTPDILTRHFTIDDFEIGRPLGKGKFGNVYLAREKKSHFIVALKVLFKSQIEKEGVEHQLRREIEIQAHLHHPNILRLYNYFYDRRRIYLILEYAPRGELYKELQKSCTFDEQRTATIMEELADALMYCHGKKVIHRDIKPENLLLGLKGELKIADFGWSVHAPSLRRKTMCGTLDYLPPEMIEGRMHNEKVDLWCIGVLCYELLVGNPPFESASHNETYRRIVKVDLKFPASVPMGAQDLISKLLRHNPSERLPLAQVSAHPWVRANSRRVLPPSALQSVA
T2 sequence (Q9NQS7 821-918 partner limits assumed, species assumed): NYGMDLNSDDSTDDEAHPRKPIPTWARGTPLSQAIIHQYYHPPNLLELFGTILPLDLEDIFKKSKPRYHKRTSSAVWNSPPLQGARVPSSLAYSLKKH

SMILES	pIC50 [1]	pIC50 [2]
Cc1ccc2[nH]c(Sc3ccc(C4C5=C(CCCC5=O)Nc5[nH]ncc54)s3)nc2c1 (stereo not shown) [Example 101, 4-[5-(5-Methyl-1H-benzimidazol-2-ylsulfanyl)-thiophen-2-yl]-1,4,6,7,8,9-hexahydro-pyrazolo[3,4-b]quinolin-5-one]	5.77	7.22
Cc1ccc2[nH]c(Sc3ccc(C4C5=C(CC(C)(C)CC5=O)Nc5n[nH]cc54)s3)nc2c1 (stereo not shown) [Example 102, 7,7-Dimethyl-4-[5-(5-methyl-1H-benzoimidazol-2-ylsulfanyl)-thiophen-2-yl]-2,4,6,7,8,9-hexahydro-pyrazolo[3,4-b]quinolin-5-one]	6.22	7.35
Cc1ccc2[nH]c(Sc3ccc(C4C5=C(CNCC5=O)Nc5n[nH]cc54)s3)nc2c1 (stereo not shown) [Example 103, 4-[5-(5-Methyl-1H-benzoimidazol-2-ylsulfanyl)-thiophen-2-yl]-2,4,6,7,8,9-hexahydro-pyrazolo[3,4-b]-1,7-naphthyridin-5-one; compound with trifluoro-acetic acid]	5.33	6.52
CCOC(=O)c1[nH]cc2c1NC1=C(C(=O)CCCC1)C2c1ccc(Sc2nc3ccccc3[nH]2)o1 (stereo not shown) [Example 107, 10-[5-(1H-Benzoimidazol-2-ylsulfanyl)-furan-2-yl]-9-oxo-2,4,5,6,7,8,9,10-octahydro-2,4-diaza-cyclohepta[f]indene-3-carboxylic acid ethyl ester, compound with trifluoroacetic acid]	5.53	5.59
CCOC(=O)c1[nH]cc2c1NC1=C(C(=O)CCC1)C2c1ccc(Sc2nc3cc(C)ccc3[nH]2)o1 (stereo not shown) [Example 108, 9-[5-(5-Methyl-1H-benzimidazol-2-ylsulfanyl)-furan-2-yl]-8-oxo-4,5,6,7,8,9-hexahydro-2H-pyrrolo[3,4-b]quinoline-3-carboxylic acid ethyl ester]	7.39	8.10
CCOC(=O)c1[nH]cc2c1NC1=C(C(=O)CC(C)(C)C1)C2c1ccc(Sc2nc3cc(C)ccc3[nH]2)o1 (stereo not shown) [Example 109, 6,6-Dimethyl-9-[5-(5-methyl-1H-benzimidazol-2-ylsulfanyl)-furan-2-yl]-8-oxo-4,5,6,7,8,9-hexahydro-2H-pyrrolo[3,4-b]quinoline-3-carboxylic acid ethyl ester]	7.20	7.77
CCOC(=O)c1[nH]cc2c1NC1=C(C(=O)CNC1)C2c1ccc(Sc2nc3cccnc3[nH]2)o1 (stereo not shown) [Example 113, 9-[5-(3H-Imidazo[4,5-b]pyridin-2-ylsulfanyl)-furan-2-yl]-8-oxo-4,5,6,7,8,9-hexahydro-2H-pyrrolo[3,4-b][1,7]naphthyridine-3-carboxylic acid ethyl ester]	6.95	7.64
CCOC(=O)c1[nH]cc2c1NC1=C(C(=O)CCC1)C2c1ccc(Sc2nc3ccncc3[nH]2)o1 (stereo not shown) [Example 117, 9-[5-(3H-Imidazo[4,5-c]pyridin-2-ylsulfanyl)-furan-2-yl]-8-oxo-4,5,6,7,8,9-hexahydro-2H-pyrrolo[3,4-b]quinoline-3-carboxylic acid ethyl ester]	5.51	6.71
CCOC(=O)c1[nH]cc2c1NC1=C(C(=O)CNC1)C2c1ccc(Sc2nc3cc(O)ccc3[nH]2)o1 (stereo not shown) [Example 123, 9-[5-(5-Hydroxy-1H-benzimidazol-2-ylsulfanyl)-furan-2-yl]-8-oxo-4,5,6,7,8,9-hexahydro-2H-pyrrolo[3,4-b]-1,7-naphthyridine-3-carboxylic acid ethyl ester hydrochloride]	6.09	7.14
CC1(C)CC(=O)C2=C(C1)Nc1c(c[nH]c1C(=O)O)C2c1ccc(Sc2nc3ccccc3[nH]2)o1 (stereo not shown) [Example 124, 9-[5-(1H-Benzimidazol-2-ylsulfanyl)-furan-2-yl]-6,6-dimethyl-8-oxo-4,5,6,7,8,9-hexahydro-2H-pyrrolo[3,4-b]quinoline-3-carboxylic acid]	7.70	7.82
CC1(C)CC(=O)C2=C(C1)Nc1c(c[nH]c1C(N)=O)C2c1ccc(Sc2nc3ccccc3[nH]2)o1 (stereo not shown) [Example 125, 9-[5-(1H-Benzimidazol-2-ylsulfanyl)-furan-2-yl]-6,6-dimethyl-8-oxo-4,5,6,7,8,9-hexahydro-2H-pyrrolo[3,4-b]quinoline-3-carboxamide]	7.64	7.96
CCOC(=O)c1[nH]cc2c1NC1=C(C(=O)CCC1)C2c1ccc(Sc2nc3cc(OC(F)F)ccc3[nH]2)o1 (stereo not shown) [Example 126, 9-[5-(5-Difluoromethoxy-1H-benzimidazol-2-ylsulfanyl)-furan-2-yl]-8-oxo-4,5,6,7,8,9-hexahydro-2H-pyrrolo[3,4-b]quinoline-3-carboxylic acid ethyl ester]	7.39	7.89
CCOC(=O)c1[nH]cc2c1NC1=C(C(=O)CN(C(=O)OC(C)(C)C)C1)C2c1ccc(Sc2nc3cc(OC(F)F)ccc3[nH]2)o1 (stereo not shown) [Example 127]	6.25	7.03
CCOC(=O)c1[nH]cc2c1NC1=C(C(=O)CNC1)C2c1ccc(Sc2nc3cc(OC(F)F)ccc3[nH]2)o1 (stereo not shown) [Example 128, 9-[5-(5-Difluoromethoxy-1H-benzimidazol-2-ylsulfanyl)-furan-2-yl]-8-oxo-4,5,6,7,8,9-hexahydro-2H-pyrrolo[3,4-b]-1,7-naphthyridine-3-carboxylic acid ethyl ester hydrochloride]	6.94	7.77
CCOC(=O)c1[nH]cc2c1NC1=C(C(=O)CN(C(=O)OC(C)(C)C)C1)C2c1ccc(Sc2nc3cc(Cl)ccc3[nH]2)o1 (stereo not shown) [Example 130]	6.36	7.43
CCOC(=O)c1[nH]cc2c1NC1=C(C(=O)CNC1)C2c1ccc(Sc2nc3cc(Cl)ccc3[nH]2)o1 (stereo not shown) [Example 131, 9-[5-(5-Chloro-1H-benzimidazol-2-ylsulfanyl)-furan-2-yl]-8-oxo-4,5,6,7,8,9-hexahydro-2H-pyrrolo[3,4-b]-1,7-naphthyridine-3-carboxylic acid ethyl ester hydrochloride]	7.09	8.00
CCOC(=O)c1[nH]cc2c1NC1=C(C(=O)CCC1)C2c1ccc(Sc2nc3cc(C(F)(F)F)ccc3[nH]2)o1 (stereo not shown) [Example 132, 8-Oxo-9-[5-(5-trifluoromethyl-1H-benzimidazol-2-ylsulfanyl)-furan-2-yl]-4,5,6,7,8,9-hexahydro-2H-pyrrolo[3,4-b]quinoline-3-carboxylic acid ethyl ester]	6.94	7.85
CCOC(=O)c1[nH]cc2c1NC1=C(C(=O)CCC1)C2c1ccc(Sc2nc3cc(Cl)c(C)cc3[nH]2)o1 (stereo not shown) [Example 133, 9-[5-(5-Chloro-6-methyl-1H-benzimidazol-2-ylsulfanyl)-furan-2-yl]-8-oxo-4,5,6,7,8,9-hexahydro-2H-pyrrolo[3,4-b]quinoline-3-carboxylic acid ethyl ester]	7.51	8.30
CCOC(=O)c1[nH]cc2c1NC1=C(C(=O)CN(C(=O)OC(C)(C)C)C1)C2c1ccc(Sc2nc3cc(Cl)c(C)cc3[nH]2)o1 (stereo not shown) [Example 134]	6.28	7.33
CCOC(=O)c1[nH]cc2c1NC1=C(C(=O)CNC1)C2c1ccc(Sc2nc3cc(Cl)c(C)cc3[nH]2)o1 (stereo not shown) [Example 135, 9-[5-(5-Chloro-6-methyl-1H-benzimidazol-2-ylsulfanyl)-furan-2-yl]-8-oxo-4,5,6,7,8,9-hexahydro-2H-pyrrolo[3,4-b]-1,7-naphthyridine-3-carboxylic acid ethyl ester hydrochloride]	6.92	7.66
CCOC(=O)c1[nH]cc2c1NC1=C(C(=O)CCC1)C2c1ccc(Sc2nc3cc(Cl)cc(C)c3[nH]2)o1 (stereo not shown) [Example 136, 9-[5-(5-Chloro-7-methyl-1H-benzimidazol-2-ylsulfanyl)-furan-2-yl]-8-oxo-4,5,6,7,8,9-hexahydro-2H-pyrrolo[3,4-b]quinoline-3-carboxylic acid ethyl ester]	7.74	7.92
CCOC(=O)c1[nH]cc2c1NC1=C(C(=O)CN(C(=O)OC(C)(C)C)C1)C2c1ccc(Sc2nc3cc(Cl)cc(C)c3[nH]2)o1 (stereo not shown) [Example 137, 6-tert-Butyloxy-9-[5-(5-chloro-7-methyl-1H-benzimidazol-2-ylsulfanyl)-furan-2-yl]-8-oxo-2,4,5,7,8,9-hexahydro-pyrrolo[3,4-b]-1,7-naphthyridine-3-carboxylic acid ethyl ester]	6.69	7.03
CCOC(=O)c1[nH]cc2c1NC1=C(C(=O)CNC1)C2c1ccc(Sc2nc3cc(Cl)cc(C)c3[nH]2)o1 (stereo not shown) [Example 138, 9-[5-(5-Chloro-7-methyl-1H-benzimidazol-2-ylsulfanyl)-furan-2-yl]-8-oxo-4,5,6,7,8,9-hexahydro-2H-pyrrolo[3,4-b]-1,7-naphthyridine-3-carboxylic acid ethyl ester hydrochloride]	8.10	8.22
